In ChEMBL document CHEMBL1153842, “Trioxaquines and heme-artemisinin adducts inhibit the in vitro formation of hemozoin better than chloroquine” (Antimicrob Agents Chemother, 2007) one finds Activity data, which are given here for eight compounds.

Active and inactive are the calls of the source. The calls are words filed in the database; no cut-off is given here.

Assay type in all cases: functional
In assay [1] the target is T1, Histidine-rich protein PFHRP-II (Plasmodium falciparum) (UniProt P05227).
T1 sequence (whole entry): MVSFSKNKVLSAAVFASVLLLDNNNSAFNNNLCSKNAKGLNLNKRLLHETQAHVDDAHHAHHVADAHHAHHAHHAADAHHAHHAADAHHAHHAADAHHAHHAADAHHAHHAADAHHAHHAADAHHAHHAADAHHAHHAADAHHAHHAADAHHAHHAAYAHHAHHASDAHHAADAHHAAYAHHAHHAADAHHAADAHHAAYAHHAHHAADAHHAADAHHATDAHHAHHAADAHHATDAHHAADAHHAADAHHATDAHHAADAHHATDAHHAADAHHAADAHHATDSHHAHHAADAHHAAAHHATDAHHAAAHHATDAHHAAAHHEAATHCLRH
The assay is described as follows: Inhibition of beta-hematin formation at 1:1 drug to heme ratio by infrared spectra measured after 18 hrs.

For assay [2], the target named is T1, Histidine-rich protein PFHRP-II (Plasmodium falciparum). Kind of assay: Inhibition of beta-hematin formation at drug to heme molar equivalent ratio of 15 by infrared spectra measured after 18 hrs.
The target is the same in assay [3]. The assay is described as follows: Inhibition of beta-hematin formation at drug to heme molar equivalent ratio of 10 by infrared spectra measured after 18 hrs.
Assay [4] has the same target. The assay is described as follows: Inhibition of beta-hematin formation at drug to heme molar equivalent ratio of 3 by infrared spectra measured after 18 hrs.
The target is the same in assay [5]. The assay is described as follows: Inhibition of beta-hematin formation at drug to heme molar equivalent ratio of 2 by infrared spectra measured after 18 hrs.

As for `C[C@@H]1CC[C@H]2[C@@H](C)C(=O)O[C@@H]3O[C@@]4(C)CC[C@@H]1[C@]32OO4`, the result in assay [1] was Active. Also, the outcome in assay [2] was inactive.

Turning to `CCN(CC)CCCC(C)Nc1ccnc2cc(Cl)ccc12` (centres undefined), the result in assay [3] was Active.

Consider `C[C@H]1[C@H](OC(=O)CCC(=O)O)O[C@@H]2O[C@@]3(C)CC[C@H]4[C@H](C)CC[C@@H]1[C@@]24OO3`, for which, in assay [2], the result was inactive.

With `NCCNc1ccnc2cc(Cl)ccc12`, the result in assay [3] was Active.

For `COc1cc(NC(C)CCCN)c2ncccc2c1` (centres undefined), in assay [2], the outcome was inactive.

Take `CO[C@H]1O[C@@H]2O[C@@]3(C)CC[C@H]4[C@H](C)CC[C@@H]([C@H]1C)[C@@]24OO3`: the result in assay [2] was inactive.

Take `COc1cc(NC(C)CCCNC2CCC3(CC2)OOC2CCC(C(C)C)=CC2O3)c2ncccc2c1` (centres undefined): in assay [4], the result was Active.

As for `CC(C)C1=CC2OC3(CCC(NCCNc4ccnc5cc(Cl)ccc45)CC3)OOC2CC1` (centres undefined), in assay [5], the result was Active.
